Data on 2 compounds can be found in PMC3800558 (Insect biochemistry and molecular biology, 2013).

What is called EC50 is the concentration needed to bring the measured effect to its halfway point. A lower EC50 goes with a more potent agent.

One experiment addresses T1, CquiOR37 (Culex quinquefasciatus, UniProt W0HHK8).
T1 sequence (W0HHK8 1-385): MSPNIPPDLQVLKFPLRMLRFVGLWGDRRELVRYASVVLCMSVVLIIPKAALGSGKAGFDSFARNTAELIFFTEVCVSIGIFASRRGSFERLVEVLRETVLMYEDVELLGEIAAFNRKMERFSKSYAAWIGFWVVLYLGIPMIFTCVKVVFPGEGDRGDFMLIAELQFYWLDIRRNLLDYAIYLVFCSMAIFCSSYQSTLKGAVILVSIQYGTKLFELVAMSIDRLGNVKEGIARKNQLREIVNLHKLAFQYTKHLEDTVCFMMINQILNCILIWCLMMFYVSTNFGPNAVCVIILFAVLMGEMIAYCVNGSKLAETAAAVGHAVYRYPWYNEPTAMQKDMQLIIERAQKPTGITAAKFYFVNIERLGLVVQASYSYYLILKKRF
T1 sequence (Q309I4 1-480 partner): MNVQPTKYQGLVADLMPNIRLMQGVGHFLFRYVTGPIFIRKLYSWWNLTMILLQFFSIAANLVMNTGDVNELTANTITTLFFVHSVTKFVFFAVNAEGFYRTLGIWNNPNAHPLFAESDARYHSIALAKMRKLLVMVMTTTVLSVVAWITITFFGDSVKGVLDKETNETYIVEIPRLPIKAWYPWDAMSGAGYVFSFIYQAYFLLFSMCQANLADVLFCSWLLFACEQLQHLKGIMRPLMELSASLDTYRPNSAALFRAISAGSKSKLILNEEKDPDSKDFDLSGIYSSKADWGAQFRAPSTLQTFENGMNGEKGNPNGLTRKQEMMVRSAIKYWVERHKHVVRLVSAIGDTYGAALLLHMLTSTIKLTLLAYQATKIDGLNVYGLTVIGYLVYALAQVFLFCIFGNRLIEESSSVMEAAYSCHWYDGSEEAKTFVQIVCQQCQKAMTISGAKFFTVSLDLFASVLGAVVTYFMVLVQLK
Format: cell-based.

A further experiment addresses T2, CquiOR99 (Culex quinquefasciatus, UniProt W0HIQ7).
T2 sequence (W0HIQ7 1-389): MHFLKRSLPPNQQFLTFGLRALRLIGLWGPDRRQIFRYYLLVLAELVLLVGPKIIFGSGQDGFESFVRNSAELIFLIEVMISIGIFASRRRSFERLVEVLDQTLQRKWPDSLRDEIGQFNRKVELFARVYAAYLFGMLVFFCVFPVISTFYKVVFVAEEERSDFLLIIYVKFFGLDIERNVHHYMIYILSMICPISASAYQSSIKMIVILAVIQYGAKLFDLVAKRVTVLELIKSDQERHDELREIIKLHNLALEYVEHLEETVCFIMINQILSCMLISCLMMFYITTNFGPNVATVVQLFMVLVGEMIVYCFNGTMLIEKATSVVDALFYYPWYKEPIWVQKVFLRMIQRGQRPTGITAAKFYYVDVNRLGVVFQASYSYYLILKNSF
T2 sequence (Q309I4 1-480 partner): T1 sequence (Q309I4 1-480 partner)
Format: cell-based.

For `CCc1ccc(O)cc1` [4-ethylphenol], the EC50 at CquiOR37 is 18.2 µM; on CquiOR99, 0.74 µM.

In the case of `Cc1ccc(O)cc1` [4-methylphenol], the EC50 on CquiOR37 was 6.4 µM; on CquiOR99 it was 14.4 µM.
